Test results: PMC8648852, “Pyrazoline derivatives as promising novel antischistosomal agents” (Scientific Reports, 2021)
Blank lines part the entries; values can stand above or below the molecule they belong to.

Assays:
[1] = Cytotoxicity assay (MTT), SH-SY5Y cells; type: cell-based, human; conditions: human, SH-SY5Y cells (human neuroblastoma); SH-SY5Y cells, 72 h, MTT
Description: (§1) The selectivity index (SI) of a compound is a widely accepted parameter used to express a drug’s in vitro efficacy. Therefore, the cytotoxic effect of these six pyrazolines (16, 18, 19, 21, 22 and 23) was evaluated using a monkey cell line (Vero) and a human cell line (SH-SY5Y). Cells were incubated with each compound at a range of concentrations for determination of cytotoxic concentrations 50% (CC50). […] With the EC50 data collected for schistosomes as well as the CC50 for animal and human cells, the selectivity indices (SI) were determined for each of the pyrazolines tested (Table 1). […] A SI value ≥ 10 is in accordance with the criteria defined by the WHO for antiparasitic hits, leads, and drug candidates. […] Comparatively, the SI values achieved with pyrazolines exceeded those obtained for other relevant heterocyclic compounds with antischistosomal properties[21],[22]. Although the SI values recorded for pyrazolines were more than 10 times below those for the reference drug praziquantel, a SI value ≥ 10 fulfills and exceeds the criteria established by the WHO for potential compounds as anthelmintic agents. The cytotoxicity of compounds was tested against Vero cells (African green monkey kidney cells obtained from the American Type Culture Collection, ATCC; Manassas, VA, USA) and SH-SY5Y cells (human neuroblastoma obtained from Banco de Células do Rio de Janeiro, BCRJ, RJ, Brazil). Cells was cultured in DMEM medium supplemented with 10% fetal calf serum, penicillin (100 U/mL) and streptomycin (100 µg/mL) and 2 mM of L-glutamine at 37 °C and in a 5% CO2 humidified incubator (Panasonic). The DMEM contained 1 or 4 mg/mL glucose for Vero and SH-SY5Y cells, respectively. Cytotoxicity assay was performed as previously described[25],[26]. Briefly, cells were seeded in 96-well plates (Corning) in DMEM medium and incubated with twofold serial drug starting at 200 μM following a 24 h adhesion period at 37 °C in 5% CO2. After 72 h, MTT was added and incubation was continued for another 3 h. The plate was then read using spectrophotometer (Epoch Microplate Spectrophotometer, BioTek Instruments, Winooski, VT, USA) at 595 nm. The assay was conducted in duplicate and repeated three times. Values were expressed as percentage of the control and 50% cytotoxic concentration (CC50) values were calculated. The selectivity indices (SI) of tested compounds were calculated by dividing CC50 values obtained on mammalian cells with EC50 values determined on S. mansoni.

SH-SY5Y cells = test: Cytotoxicity assay (MTT), SH-SY5Y cells; type: cell-based, human; conditions: CC50 (SH-SY5Y) divided by EC50 (S. mansoni)
Description: as §1

S. mansoni adult worm = test: In vitro antischistosomal assay (viability of ex vivo adult worms); type: cell-based, Schistosoma mansoni; conditions: for Time until all parasites were dead: 50 μM; for Antiparasitic activity in initial screen: 50 µM, after 72 h, adult worms; for EC50: 72 h, ex vivo adult schistosomes, brackets = 95% confidence interval; for Death of all worms within 24 h: 25 μM
Description: For biological screening, S. mansoni adult parasites were isolated from the mouse infection model (parasite ex vivo) and all compounds were initially screened at 50 µM. The gold-standard antiparasitic compound praziquantel was used as a positive control and DMSO at 0.5% v/v (representing the highest concentration of solvent) served as a negative control. […] For the remaining compounds tested, no EC50 values could be calculated due to lack of activity at 50 μM. […] In tandem, our findings confirm that pyrazolines have a potent antiparasitic activity. Indeed, few compounds in the literature are active at low concentrations for review see[11],[19]. According to criteria established by the World Health Organization (WHO) for antiparasitic hits, leads, and drug candidates, at the start of a screening campaign a compound should inhibit mobility of helminths in vitro at 10 μg/mL[20], commonly ranging from 30 to 40 μM. Thus, the anthelminthic activity of pyrazolines surpasses criteria established by the WHO.
(§2) Adult schistosomes (BH strain) were isolated from infected mice and cultured in RPMI medium + 10% fetal calf serum and 100 U/mL penicillin and 100 μg/mL streptomycin in a 24-well culture plate (Corning, New York, NY, USA) containing one pair of parasites per well at 37 °C and 5% CO2 (Panasonic Healthcare, Sakata, Oizumi-machi, Japan)[38],[39]. For antischistosomal assay, compounds were dissolved in DMSO (final concentration of 0.5% v/v). Each drug concentration was tested at least in triplicate, and the experiments were repeated three times. The initial concentration of the pyrazolines and praziquantel was 50 μM and 3 μM, respectively, which was serially diluted in medium with twofold dilutions to give six concentrations[40],[41]. The negative control worms were assayed in RPMI 1640 medium and RPMI 1640 with 0.5% DMSO. Parasites were monitored daily at 24, 48 and 72 h under a stereomicroscope (Leica Microsystems EZ4E, Wetzlar, Germany) and an inverted microscope (BEL Engineering INV 100, Monza, MB, Italy). Egg production was evaluated daily as previously described. Parasite viability was averaged and 50% effective concentrations (EC50) were calculated using GraphPad Prism software[24],[43].

Vero cells = test: Cytotoxicity assay (MTT), Vero cells; type: cell-based, African green monkey; conditions: CC50 (Vero) divided by EC50 (S. mansoni)
Description: as §1

[2] = Cytotoxicity assay (MTT), Vero cells; type: cell-based, African green monkey; conditions: African green monkey, Vero cells (African green monkey kidney cells); Vero cells, 72 h, MTT; brackets = 95% confidence interval
Description: as §1

[3] = tested on: paired adult schistosomes (S. mansoni); test: Egg production (fecundity) of paired adult schistosomes in vitro; type: cell-based, Schistosoma mansoni; conditions: sublethal concentrations (6.25 μM for 16, 12.5 μM for 19 and 23), compared to control
Description: Based on antischistosomal properties of pyrazolines 16, 18, 19, 21, 22 and 23, the ability of these six compounds to affect fecundity (egg production) was subsequently measured. […] To further investigate this effect on schistosome fecundity, parasites were tested using sublethal concentrations (3.5 μM for compound 22, 6.25 μM for compound 16, and 12.5 μM for compounds 18, 19, 21, and 23).
as §2

SMILES: CCCCCCCCCCOc1ccc(C2CC(c3ccc(F)cc3)=NN2C(N)=O)cc1 (stereo not shown) [Compound 18, 5-(4-(decyloxy)phenyl)-3-(4-fluorophenyl)-4,5-dihydropyrazole-1-carboxamide]
CC50 at 72 h [1]: > 200 µM
Human cells SI (selectivity index) (SH-SY5Y cells): > 13.7
Time until all parasites were dead (S. mansoni adult worm): ≤ 24 h
Antiparasitic activity in initial screen (S. mansoni adult worm): showed antiparasitic activity
EC50 (S. mansoni adult worm; Schistosoma mansoni): < 20 µM
EC50 (S. mansoni adult worm): 14.6 µM
Monkey cells SI (selectivity index) (Vero cells): 10.9
CC50 at 72 h [2]: 159 µM

SMILES: Cc1ccc(C2CC(c3ccc(F)cc3)=NN2C(N)=O)cc1 (stereo not shown) [Compound 19, 3-(4-fluorophenyl)-4,5-dihydro-5-p-tolylpyrazole-1-carboxamide]
CC50 at 72 h [1]: > 200 µM
Human cells SI (selectivity index) (SH-SY5Y cells): > 11.5
Time until all parasites were dead (S. mansoni adult worm): ≤ 24 h
Antiparasitic activity in initial screen (S. mansoni adult worm): showed antiparasitic activity
EC50 (S. mansoni adult worm; Schistosoma mansoni): < 20 µM
EC50 (S. mansoni adult worm): 17.4 µM
Monkey cells SI (selectivity index) (Vero cells): 9.7
CC50 at 72 h [2]: 169 µM
Reduction in the number of eggs [3]: 30–70%

SMILES: CN(C)c1ccc(C2CC(c3ccc(F)cc3)=NN2C(N)=O)cc1 (stereo not shown) [Compound 21, 5-(4-(dimethylamino)phenyl)-3-(4-fluorophenyl)-4,5-dihydropyrazole-1-carboxamide]
CC50 at 72 h [1]: > 200 µM
Human cells SI (selectivity index) (SH-SY5Y cells): > 10.1
Time until all parasites were dead (S. mansoni adult worm): 48 h
Antiparasitic activity in initial screen (S. mansoni adult worm): showed antiparasitic activity
EC50 (S. mansoni adult worm; Schistosoma mansoni): < 20 µM
EC50 (S. mansoni adult worm): 19.8 µM
Monkey cells SI (selectivity index) (Vero cells): > 10.1
CC50 at 72 h [2]: > 200 µM

SMILES: CCCCCCCCCOc1ccc(C2CC(c3ccccc3)=NN2C(N)=O)cc1 (stereo not shown) [Compound 16, 4,5-dihydro-5-(4-(nonyloxy)phenyl)-3-phenylpyrazole-1-carboxamide]
CC50 at 72 h [1]: > 200 µM
Human cells SI (selectivity index) (SH-SY5Y cells): > 14.5
Death of all worms within 24 h (S. mansoni adult worm): death of all worms
Time until all parasites were dead (S. mansoni adult worm): ≤ 24 h
Antiparasitic activity in initial screen (S. mansoni adult worm): showed antiparasitic activity
EC50 (S. mansoni adult worm; Schistosoma mansoni): < 20 µM
EC50 (S. mansoni adult worm): 13.8 µM
Monkey cells SI (selectivity index) (Vero cells): 11.2
CC50 at 72 h [2]: 155 µM
Reduction in the number of eggs [3]: 30–70%

The next lines start with results.

EC50 (S. mansoni adult worm; Schistosoma mansoni): 28.2 µM
SMILES: CCCCCCOc1ccc(C2CC(c3ccccc3)=NN2C(N)=S)cc1 (stereo not shown) [Compound 23, 4,5-dihydro-5-(4-(hexyloxy)phenyl)-3-phenylpyrazole-1-carbothioamide]
CC50 at 72 h [1]: > 200 µM
Human cells SI (selectivity index) (SH-SY5Y cells): > 7.1
Time until all parasites were dead (S. mansoni adult worm): 72 h
Antiparasitic activity in initial screen (S. mansoni adult worm): showed antiparasitic activity
Monkey cells SI (selectivity index) (Vero cells): > 7.1
CC50 at 72 h [2]: > 200 µM
Reduction in the number of eggs [3]: 30–70%

EC50 (S. mansoni adult worm; Schistosoma mansoni): < 10 µM
EC50 (S. mansoni adult worm): 6.2 µM
SMILES: NC(=O)N1N=C(c2ccc(F)cc2)CC1c1ccc(Cl)cc1 (stereo not shown) [Compound 22, 5-(4-chlorophenyl)-3-(4-fluorophenyl)-4,5-dihydropyrazole-1-carboxamide]
CC50 at 72 h [1]: > 200 µM
Human cells SI (selectivity index) (SH-SY5Y cells): > 32.2
Death of all worms within 24 h (S. mansoni adult worm): death of all worms
Time until all parasites were dead (S. mansoni adult worm): ≤ 24 h
Antiparasitic activity in initial screen (S. mansoni adult worm): showed antiparasitic activity
Monkey cells SI (selectivity index) (Vero cells): 21.6
CC50 at 72 h [2]: 134 µM

EC50 (S. mansoni adult worm; Schistosoma mansoni): 0.93 µM
SMILES: O=C(C1CCCCC1)N1CC(=O)N2CCc3ccccc3C2C1 (stereo not shown) [PZQ, praziquantel, reference compound]
CC50 at 72 h [1]: > 200 µM
CC50 at 72 h [2]: > 200 µM
